ChEMBL document CHEMBL1201862, “PubChem BioAssay data set” (2004)
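Cultured in 96-well plates, cells were exposed to test compound for 48 hours across five concentrations. GI50 = concentration required for 50% inhibition of growth.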 Active and inactive are the calls of the source. Rule as the data show it: active = GI50 up to about 1.1 µM and inactive = higher.

What was measured:
Assay in all cases: NCI-60 cell line screen, 48 h
A549 = tested on: A549
CCRF-CEM = tested on: CCRF-CEM
HCT-15 = tested on: HCT-15
HL-60 = tested on: HL-60
K562 = tested on: K562
M14 = tested on: M14
NCI-H460 = tested on: NCI-H460
OVCAR-4 = tested on: OVCAR-4
SF-268 = tested on: SF-268
SF-295 = tested on: SF-295
SK-MEL-28 = tested on: SK-MEL-28
SK-MEL-2 = tested on: SK-MEL-2
SK-OV-3 = tested on: SK-OV-3
SN12C = tested on: SN12C
SNB-75 = tested on: SNB-75
COLO 205 = tested on: COLO 205
EKVX = tested on: EKVX
HOP-62 = tested on: HOP-62

Row | Structure (SMILES) | GI50 (A549) | GI50 (CCRF-CEM) | GI50 (HCT-15) | GI50 (HL-60) | GI50 (K562) | GI50 (M14) | GI50 (NCI-H460) | GI50 (OVCAR-4) | GI50 (SF-268) | GI50 (SF-295) | GI50 (SK-MEL-28) | GI50 (SK-MEL-2) | GI50 (SK-OV-3) | GI50 (SN12C) | GI50 (SNB-75) | GI50 (COLO 205) | GI50 (EKVX) | GI50 (HOP-62)
1 | O=C(NCCNCCO)N/N=C/c1ccccc1 | > 100 µM (inactive) | > 100 µM (inactive) | > 100 µM | 79.3 µM (inactive) | > 100 µM (inactive) | > 100 µM (inactive) | > 100 µM (inactive) | > 100 µM (inactive) | > 100 µM (inactive) | > 100 µM (inactive) | > 100 µM (inactive) | > 100 µM (inactive) | > 100 µM (inactive) | > 100 µM (inactive) | > 100 µM (inactive) | – | – | –
2 | Cc1c(O)c(O)cc[n+]1C1OC(CO)C(O)C1O (stereo not drawn) | > 100 µM (inactive) | > 100 µM (inactive) | > 100 µM | – | > 100 µM (inactive) | > 100 µM (inactive) | > 100 µM (inactive) | > 100 µM (inactive) | > 100 µM (inactive) | – | > 100 µM (inactive) | > 100 µM (inactive) | > 100 µM (inactive) | > 100 µM (inactive) | > 100 µM (inactive) | > 100 µM (inactive) | > 100 µM (inactive) | –
3 | CCC12C=CCN3CCC4(C(=C(C(=O)OC)C1)Nc1ccccc14)[C@H]32 (stereo partly drawn) | 34.7 µM (inactive) | 22.2 µM (inactive) | 40.3 µM | 16 µM (inactive) | 18.8 µM (inactive) | 21.6 µM (inactive) | 18.8 µM (inactive) | 29.4 µM (inactive) | 19.5 µM (inactive) | 28.3 µM (inactive) | 41.7 µM (inactive) | 19.1 µM (inactive) | 21.8 µM (inactive) | – | 22 µM (inactive) | 18.4 µM (inactive) | 51.1 µM (inactive) | –
4 | CCC12C=CCN3CCC4(c5cc(C6(C(=O)OC)CCCCCc7c6[nH]c6ccccc76)c(OC)cc5N(C)C4C(O)(C(=O)OC)C1OC(C)=O)C32 (stereo not drawn) | 3.02 µM (inactive) | 1.97 µM (inactive) | 2.1 µM | 2.29 µM (inactive) | 2.82 µM (inactive) | 2.64 µM (inactive) | 2.31 µM (inactive) | 2.95 µM (inactive) | 2.95 µM (inactive) | 1.91 µM (inactive) | 2.23 µM (inactive) | 1.74 µM (inactive) | – | 3.63 µM (inactive) | 2.3 µM (inactive) | 2.93 µM (inactive) | 3.57 µM (inactive) | 3.72 µM (inactive)
5 | CCOC(=O)NC(=O)c1cn(C2OC(COC(=O)CCCCCCCCC(=O)OCC3OC(n4cc(C(=O)NC(=O)OCC)c(=O)[nH]c4=O)C4OC(C)(C)OC34)C3OC(C)(C)OC32)c(=O)[nH]c1=O (stereo not drawn) | 90.4 µM (inactive) | 30.1 µM (inactive) | > 100 µM | 63.5 µM (inactive) | 40.8 µM (inactive) | 63.4 µM (inactive) | > 100 µM (inactive) | 57 µM (inactive) | 70.5 µM (inactive) | > 100 µM (inactive) | 84.1 µM (inactive) | 52.1 µM (inactive) | – | 83.8 µM (inactive) | 56.9 µM (inactive) | – | > 100 µM (inactive) | > 100 µM (inactive)
6 | CO[C@@]12CC(=O)/C(=C(O)\C=C\c3ccccc3)C(=O)[C@]1(OC)Cc1ccccc1O2 | 25.7 µM (inactive) | 22.4 µM (inactive) | 20 µM | – | 33.7 µM (inactive) | 28.1 µM (inactive) | 28.9 µM (inactive) | 53.8 µM (inactive) | 27.7 µM (inactive) | 29.8 µM (inactive) | 22.4 µM (inactive) | 36.8 µM (inactive) | 54 µM (inactive) | 30.6 µM (inactive) | 77.1 µM (inactive) | 47.5 µM (inactive) | 38.5 µM (inactive) | 21.6 µM (inactive)
7 | O=C(O)C1C2CCC(O2)C1C(=O)N1CCCCC1 (stereo not drawn) | 22.8 µM (inactive) | – | 12.1 µM | – | – | 12.7 µM (inactive) | 12.8 µM (inactive) | 10.8 µM (inactive) | 13.2 µM (inactive) | 10.4 µM (inactive) | 5.83 µM (inactive) | 8.17 µM (inactive) | 15.7 µM (inactive) | 2.57 µM (inactive) | 4.51 µM (inactive) | 1.95 µM (inactive) | 4.02 µM (inactive) | 12.7 µM (inactive)
8 | CCOC(=O)NC(=O)c1cn(CCOC(=O)CCCCCCCCC(=O)OCCn2cc(C(=O)NC(=O)OCC)c(=O)[nH]c2=O)c(=O)[nH]c1=O | > 100 µM (inactive) | > 100 µM (inactive) | > 100 µM | > 100 µM (inactive) | > 100 µM (inactive) | > 100 µM (inactive) | > 100 µM (inactive) | > 100 µM (inactive) | > 100 µM (inactive) | > 100 µM (inactive) | > 100 µM (inactive) | > 100 µM (inactive) | – | > 100 µM (inactive) | > 100 µM (inactive) | – | > 100 µM (inactive) | > 100 µM (inactive)
9 | C/N=c1\ss/c(=N\C(=S)N(C)C)n1C | > 100 µM (inactive) | > 100 µM (inactive) | > 100 µM | > 100 µM (inactive) | > 100 µM (inactive) | > 100 µM (inactive) | > 100 µM (inactive) | > 100 µM (inactive) | > 100 µM (inactive) | > 100 µM (inactive) | > 100 µM (inactive) | > 100 µM (inactive) | > 100 µM (inactive) | > 100 µM (inactive) | > 100 µM (inactive) | – | > 100 µM (inactive) | > 100 µM (inactive)
10 | COC1(OC)CC2C(=O)N(Cc3ccccc3)C1CC2S(=O)(=O)c1ccccc1 (stereo not drawn) | > 100 µM (inactive) | > 100 µM (inactive) | > 100 µM | > 100 µM (inactive) | > 100 µM (inactive) | > 100 µM (inactive) | > 100 µM (inactive) | – | – | > 100 µM (inactive) | > 100 µM (inactive) | > 100 µM (inactive) | > 100 µM (inactive) | > 100 µM (inactive) | > 100 µM (inactive) | > 100 µM (inactive) | > 100 µM (inactive) | > 100 µM (inactive)
11 | CCOc1ccc(NC2=NC(=O)C(CC(=O)Nc3ccccc3[N+](=O)[O-])S2)cc1 (stereo not drawn) | > 100 µM (inactive) | > 100 µM (inactive) | > 100 µM | > 100 µM (inactive) | > 100 µM (inactive) | > 100 µM (inactive) | > 100 µM (inactive) | > 100 µM (inactive) | > 100 µM (inactive) | > 100 µM (inactive) | > 100 µM (inactive) | > 100 µM (inactive) | – | > 100 µM (inactive) | > 100 µM (inactive) | – | > 100 µM (inactive) | –
12 | OCc1ccc(C2CC(c3ccco3)=NN2c2ccccc2)o1 (stereo not drawn) | > 100 µM (inactive) | > 100 µM (inactive) | > 100 µM | > 100 µM (inactive) | 86.3 µM (inactive) | > 100 µM (inactive) | > 100 µM (inactive) | > 100 µM (inactive) | > 100 µM (inactive) | > 100 µM (inactive) | > 100 µM (inactive) | > 100 µM (inactive) | – | > 100 µM (inactive) | 20 µM (inactive) | > 100 µM (inactive) | > 100 µM (inactive) | > 100 µM (inactive)
13 | CO/C(=N\N=C\c1ccc(OC)cc1OC)c1ccncc1 | > 10 µM (inactive) | > 10 µM (inactive) | > 10 µM | > 10 µM (inactive) | > 10 µM (inactive) | – | > 10 µM (inactive) | – | > 10 µM (inactive) | > 10 µM (inactive) | > 10 µM (inactive) | > 10 µM (inactive) | > 10 µM (inactive) | > 10 µM (inactive) | > 10 µM (inactive) | > 10 µM (inactive) | – | > 10 µM (inactive)
14 | Cc1csc(=S)n1OC(=O)NC1CCCCC1 | > 73.3 µM (inactive) | 9.57 µM (inactive) | > 100 µM | 17.9 µM (inactive) | 31 µM (inactive) | 40.9 µM (inactive) | > 100 µM (inactive) | – | > 87.1 µM (inactive) | > 100 µM (inactive) | > 34.6 µM (inactive) | 68.4 µM (inactive) | > 100 µM (inactive) | > 100 µM (inactive) | > 79.4 µM (inactive) | – | > 100 µM (inactive) | > 100 µM (inactive)
15 | Cc1ccc(NC(=S)SCCC(=O)O)cc1 | > 100 µM (inactive) | > 100 µM (inactive) | > 100 µM | > 100 µM (inactive) | > 100 µM (inactive) | > 100 µM (inactive) | > 100 µM (inactive) | > 100 µM (inactive) | 71.6 µM (inactive) | > 100 µM (inactive) | > 100 µM (inactive) | > 100 µM (inactive) | – | > 100 µM (inactive) | – | > 100 µM (inactive) | > 100 µM (inactive) | > 100 µM (inactive)
16 | Cn1cc(NC(=O)c2cc(NC(=O)CCCCCCCCC(=O)Nc3cc(C(=O)Nc4cc(C(=O)NCCC(N)N)n(C)c4)n(C)c3)cn2C)cc1C(=O)NCCC(=N)N | 16.9 µM (inactive) | 20.7 µM (inactive) | 35.4 µM | – | 13.4 µM (inactive) | 22.3 µM (inactive) | 20.1 µM (inactive) | 34.7 µM (inactive) | 20.5 µM (inactive) | 23.3 µM (inactive) | 12.1 µM (inactive) | 19.2 µM (inactive) | 27.9 µM (inactive) | 23.8 µM (inactive) | 18.1 µM (inactive) | 20 µM (inactive) | 20.3 µM (inactive) | 33 µM (inactive)
17 | Cc1cccc(Cl)c1NC(=O)c1cccc([N+](=O)[O-])c1O | 35.7 µM (inactive) | 73.5 µM (inactive) | 35.6 µM | > 10 µM (inactive) | 36.7 µM (inactive) | 43.8 µM (inactive) | 29 µM (inactive) | 24.5 µM (inactive) | 31.8 µM (inactive) | 28.9 µM (inactive) | 41.5 µM (inactive) | – | 43.2 µM (inactive) | 31.9 µM (inactive) | 33.9 µM (inactive) | 51.5 µM (inactive) | 39.6 µM (inactive) | 20.1 µM (inactive)
